{
  "source": "ChEMBL document CHEMBL2074069",
  "about": "“Drug- and estrogen-induced cholestasis through inhibition of the hepatocellular bile salt export pump (Bsep) of rat liver” (Gastroenterology, 2000)",
  "molecules": {"B1": {"name": "Bile salt export pump (Rattus norvegicus) (protein)", "chain": "MSDSVILRSVKKFGEENHAFESDGSHNNDKKSRLQDKMKEGDIRVGFFELFRFSSSKDIWLMLMGGVCALLHGMAQPGILIIFGIMTDIFIKYDIERQELEIPGKACVNNTIVWINSSFHQNMTNGTVCGLVDIESEMIKFSGIYAGVGMTVLILGYFQIRLWVITGARQIRRMRKIYFRRIMRMEIGWFDCTSVGELNSRFADDIEKINDAIADQLAHFLQRMSTAMCGLLLGFYRGWKLTLVILAVSPLIGIGAAVIGLSIAKFTELELKAYAKAGSIADEVLSSIRTVAAFGGENKEVERYEKNLVFAQRWGIWKGMVMGFFTGYMWCLIFFCYALAFWYGSTLVLDEEEYTPGTLVQIFLCVILAAMNIGHASSCLEIFSTGCSAATNIFQTIDRQPVIDCMSGDGYKLDRIKGEIEFHNVTFHYPSRPDVKILDNLSMVIKPGETTALVGSSGAGKSTALQLIQRFYDPCEGMVTLDGHDIRSLNIRWLRDQIGIVEQEPVLFSTTIAENIRFGREDATMEDIVQAAKDANAYNFIMALPQQFDTLVGEGGGQMSGGQKQRVAIARALIRNPKILLLDMATSALDNESEARVQEALNKIQHGHTIISVAHRLSTVRAADVIIGFEHGVAVERGTHEELLERKGVYFMLVTLQSQGDNAHKETSIMGKDATEGGTLERTFSRGSYRDSLRASIRQRSKSQLSLLTHDPPLAVADHKSSYKDSKDNDVLVEEVEPAPVRRILKYNIPEWHYILVGSLSAAINGAVTPIYSLLFSQLLGTFSLLDKEQQRSEIHSMCLFFVILGCVSIFTQFLQGYTFAKSGELLTKRLRKFGFKAMLGQDIGWFDDLRNNPGVLTTRLATDASQVQGATGSQVGMMVNSFTNIIAALLIAFFFSWKLSLIITIFFPFLALSGAVQTKMLTGFASQDKQALEKAGQITSEALSNIRTVAGIGVEGRFIKAFEVELQTSYKTAVRKANIYGLCFAFSQGIAFLANSAAYRYGGYLIAYEGLGFSHVFRVVSSVALSATAVGRTFSYTPSYAKAKISAARFFQLLDRKPPINVYSEAGEKWDNFQGKIDFIDCKFTYPSRPDIQVLNGLSVSVNPGQTLAFVGSSGCGKSTSIQLLERFYDPDQGTVMIDGHDSKKVNIQFLRSNIGIVSQEPVLFDCSIMDNIKYGDNTKEISVERAIAAAKQAQLHDFVMSLPEKYETNVGIQGSQLSRGEKQRIAIARAIVRDPKILLLDEATSALDTESEKTVQTALDKAREGRTCIVIAHRLSTIQNSDIIAVVSQGVVIEKGTHEKLMAQKGAYYKLVITGAPIS"}},
  "key": {"Bile salt export pump [1]": {"biological_target": "T1, Bile salt export pump (Rattus norvegicus, UniProt O70127)", "T1 sequence (O70127 whole entry)": "B1 chain", "experiment": "(§1) TP_TRANSPORTER: uptake in membrane vesicles from Bsep-expressing Sf9 cells", "assay_type": "functional"}, "Bile salt export pump [2]": {"biological_target": "T1, Bile salt export pump", "experiment": "TP_TRANSPORTER: inhibition of Taurocholate uptake in membrane vesicles from Bsep-expressing Sf9 cells", "assay_type": "functional"}, "[3]": {"biological_target": "ATP-binding cassette sub-family C member 2 (Rattus norvegicus, UniProt Q63120)", "sequence (Q63120 whole entry)": "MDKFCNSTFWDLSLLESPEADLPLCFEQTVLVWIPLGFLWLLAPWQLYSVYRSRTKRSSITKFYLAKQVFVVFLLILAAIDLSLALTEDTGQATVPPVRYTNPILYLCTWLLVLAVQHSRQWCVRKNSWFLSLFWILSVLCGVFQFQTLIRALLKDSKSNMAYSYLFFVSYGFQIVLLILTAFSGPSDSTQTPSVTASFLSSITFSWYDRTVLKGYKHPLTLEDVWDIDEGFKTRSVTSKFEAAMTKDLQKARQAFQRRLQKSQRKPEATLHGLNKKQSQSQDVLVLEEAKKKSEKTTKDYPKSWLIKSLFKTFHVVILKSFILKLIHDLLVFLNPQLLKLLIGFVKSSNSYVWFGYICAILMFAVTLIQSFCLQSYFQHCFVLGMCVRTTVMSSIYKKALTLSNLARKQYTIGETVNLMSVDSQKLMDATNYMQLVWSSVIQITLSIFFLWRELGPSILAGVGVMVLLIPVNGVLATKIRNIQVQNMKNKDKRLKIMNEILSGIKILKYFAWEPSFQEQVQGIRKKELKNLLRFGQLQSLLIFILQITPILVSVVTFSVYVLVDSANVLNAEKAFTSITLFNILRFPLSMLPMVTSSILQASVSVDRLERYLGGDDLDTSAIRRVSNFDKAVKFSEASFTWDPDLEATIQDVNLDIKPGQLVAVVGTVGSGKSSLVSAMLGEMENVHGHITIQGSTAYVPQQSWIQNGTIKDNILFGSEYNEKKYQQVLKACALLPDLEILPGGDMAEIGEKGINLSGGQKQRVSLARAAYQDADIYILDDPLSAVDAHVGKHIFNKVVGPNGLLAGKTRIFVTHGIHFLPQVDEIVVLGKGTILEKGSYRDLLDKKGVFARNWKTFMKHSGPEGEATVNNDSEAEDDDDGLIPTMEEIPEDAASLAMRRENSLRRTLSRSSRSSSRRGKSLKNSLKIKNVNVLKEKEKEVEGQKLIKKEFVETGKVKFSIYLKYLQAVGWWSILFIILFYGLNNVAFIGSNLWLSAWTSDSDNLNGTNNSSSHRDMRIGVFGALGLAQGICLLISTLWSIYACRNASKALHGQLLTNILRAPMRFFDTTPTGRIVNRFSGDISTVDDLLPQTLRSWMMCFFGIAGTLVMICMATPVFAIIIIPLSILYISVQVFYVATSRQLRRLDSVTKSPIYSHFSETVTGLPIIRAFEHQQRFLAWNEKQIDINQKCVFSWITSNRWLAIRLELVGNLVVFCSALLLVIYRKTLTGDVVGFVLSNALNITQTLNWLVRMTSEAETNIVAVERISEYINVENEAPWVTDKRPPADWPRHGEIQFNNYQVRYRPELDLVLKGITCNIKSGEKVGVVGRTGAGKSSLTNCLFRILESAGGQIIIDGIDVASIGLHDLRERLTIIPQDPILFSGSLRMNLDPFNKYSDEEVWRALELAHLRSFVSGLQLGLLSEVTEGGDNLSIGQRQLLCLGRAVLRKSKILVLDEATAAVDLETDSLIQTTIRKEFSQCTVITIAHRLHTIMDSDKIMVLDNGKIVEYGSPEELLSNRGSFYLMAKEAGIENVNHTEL", "experiment": "TP_TRANSPORTER: uptake in membrane vesicles from Mrp2-expressing Sf9 cells", "assay_type": "functional, cell membranes, Membrane vesicle"}, "[4]": {"substrate": "C[C@H](CCC(=O)NCCS(=O)(=O)O)[C@H]1CC[C@H]2[C@@H]3[C@H](O)C[C@@H]4C[C@H](O)CC[C@]4(C)[C@H]3CC[C@]12C", "experiment": "as §1", "assay_type": "functional"}, "[5]": {"substrate": "C[C@H](CCC(=O)NCCS(=O)(=O)O)[C@H]1CC[C@H]2[C@@H]3[C@@H](O)C[C@@H]4C[C@H](O)CC[C@]4(C)[C@H]3CC[C@]12C", "experiment": "as §1", "assay_type": "functional"}},
  "data": [
    {"molecule": "C[C@H](CCC(=O)NCCS(=O)(=O)O)[C@H]1CC[C@H]2[C@@H]3CC[C@@H]4C[C@H](O)CC[C@]4(C)[C@H]3C[C@H](O)[C@]12C", "note": "[TAURODEOXYCHOLIC ACID]", "values": [
      {"measurement": "Activity", "setting": "Bile salt export pump [1]", "result": "substrate [+]"}
    ]},
    {"molecule": "CO[C@H]1/C=C/O[C@@]2(C)Oc3c(C)c(O)c4c(O)c(cc(O)c4c3C2=O)NC(=O)/C(C)=C\\C=C\\[C@H](C)[C@H](O)[C@@H](C)[C@@H](O)[C@@H](C)[C@H](OC(C)=O)[C@@H]1C", "note": "[RIFAMYCIN]", "values": [
      {"measurement": "Ki", "setting": "Bile salt export pump [2]", "result": 3.8, "unit": "µM"}
    ]},
    {"molecule": "C[C@H](CCC(=O)NCCS(=O)(=O)O)C1CC[C@H]2[C@@H]3CC[C@@H]4C[C@H](OS(=O)(=O)O)CC[C@]4(C)[C@H]3CC[C@]12C", "note": "(some centres undefined)", "values": [
      {"measurement": "Activity", "setting": "[3]", "result": "substrate [+]"}
    ]},
    {"molecule": "COc1ccc(Cl)cc1C(=O)NCCc1ccc(S(=O)(=O)NC(=O)NC2CCCCC2)cc1", "note": "[GLYBURIDE]", "values": [
      {"measurement": "Ki", "setting": "Bile salt export pump [2]", "result": 6.1, "unit": "µM"}
    ]},
    {"molecule": "CO[C@H]1/C=C/O[C@@]2(C)Oc3c(C)c(O)c4c(O)c(c(/C=N/N5CCN(C)CC5)c(O)c4c3C2=O)NC(=O)/C(C)=C\\C=C\\[C@H](C)[C@H](O)[C@@H](C)[C@@H](O)[C@@H](C)[C@H](OC(C)=O)[C@@H]1C", "note": "[RIFAMPIN]", "values": [
      {"measurement": "Ki", "setting": "Bile salt export pump [2]", "result": 11.9, "unit": "µM"}
    ]},
    {"molecule": "C[C@H](CCC(=O)NCC(=O)O)[C@H]1CC[C@H]2[C@@H]3[C@H](O)C[C@@H]4C[C@H](O)CC[C@]4(C)[C@H]3C[C@H](O)[C@]12C", "note": "[GLYCOCHOLIC ACID]", "values": [
      {"measurement": "Activity", "setting": "Bile salt export pump [1]", "result": "substrate [+]"}
    ]},
    {"molecule": "C[C@H](CCC(=O)NCC(=O)O)[C@H]1CC[C@H]2[C@@H]3[C@H](O)C[C@@H]4C[C@H](O)CC[C@]4(C)[C@H]3CC[C@]12C", "note": "[GLYCOCHENODEOXYCHOLATE]", "values": [
      {"measurement": "Activity", "setting": "Bile salt export pump [1]", "result": "substrate [+]"}
    ]},
    {"molecule": "B1", "values": [
      {"measurement": "Km", "setting": "[4]", "result": 2.2, "unit": "µM"},
      {"measurement": "Km", "setting": "[5]", "result": 4.1, "unit": "µM"}
    ]}
  ]
}
